Measurements reported in patent US7776826B2, “Method for fostering bone formation and preservation” (Unigene Laboratories, Inc., priority 2004, dated 2010).

Test system: Male Sprague-Dawley rats
Experiment: PIXIMUS (DEXA) analysis of femur distal marrow cavity BMD after left femur bone marrow ablation (bmx), Groups A-J
Assay type: in vivo, rat
From the text: FIG. 1 is a graphical representation of the results of a PIXIMUS analysis of the femur distal marrow cavity bone mineral density (“BMD”) of groups of laboratory rats which were sacrificed at one-week intervals during a three-week test regimen. The PIXIMUS analyzer is available from Lunar Corp., Palo Alto, Calif. and provides Dual Energy X-Ray Absorptiometry (“DEXA”) data for small animals such as mice and rats. Male Sprague-Dawley rats (5 animals per group) aged 9 weeks were sacrificed and tested at time 0 and after 1, 2 and 3 weeks. The various groups were subjected to the following treatment modalities: Group A—left femur control; Group B—left femur sham; Group C—mechanical bone marrow ablation (bmx) to alter the contents of the bone marrow cavity of the left femur; Group D—mechanical bone marrow ablation treatment (bmx) of the left femur, coupled with the administration of an amidated parathyroid hormone truncate (PTH[1-34]-NH2) during days 1-21; and Group E—a right (non-bmx) femur BMD measurement of rats treated during days 1-21 with an amidated parathyroid hormone truncate (PTH[1-34]-NH2) wherein the rat's left femur had undergone a bone ablation (bmx) treatment;
FIG. 2 is a graphical representation of the results of a PIXIMUS analysis of the femur distal marrow cavity BMD of a second set of groups of male Sprague-Dawley rats (5 animals per group) aged 9 weeks which were sacrificed and tested at time 0 and after 1, 2 and 3 weeks. The various groups were subjected to the following treatment modalities: Group F—left femur control; Group G—left femur sham; Group H—mechanical bone marrow ablation (bmx) to alter the contents of the bone marrow cavity of the left femur; Group I—mechanical bone marrow ablation (bmx) of the left femur, coupled with administration of an amidated parathyroid hormone truncate (PTH[1-34]-NH2) during days 1-7, followed by the administration of a salmon calcitonin (sCT) antiresorptive agent during days 7-21; and Group J—a right femur BMD measurement of rats treated with an amidated parathyroid hormone truncate (PTH[1-34]-NH2) wherein the rat's left femur had undergone a bone marrow ablation (bmx) treatment;
Absent the bone anabolic agent, the initial burst of bone formation is quickly followed by the resorption of newly formed bone by osteoclasts (see, e.g., the Group C curve in FIG. 1). […] Table 1 (below) sets forth the values upon which the curves obtained with Groups A-E in FIG. 1 are based. As no readings were taken for the Control (Group A) and Sham (Group B) groups at Week 1 and Week 2, these values were estimated for purposes of preparing the curves for these two Groups. Table 1, moreover, provides the standard deviations for the values obtained in each Group, which standard deviations are also indicated in FIG. 1.
As indicated herein the bmx treatment was always administered to the rats' left femur and never to the right femur. The non-ablated contralateral femur was analyzed, however, throughout the testing protocols described herein as a control used for detecting the systemic effect of the bone anabolic agent. That is, the results achieved with the contralateral (right) femur permit one to exclude the effect attributable to the bmx treatment. Moreover, analysis of the rats' right femur control also enabled the inventors to determine whether the bmx treatment of the left femur had any effect on other skeletal sites located within the body of the rat.
FIG. 2 is provided to illustrate, inter alia, the further beneficial effect achieved due to the overlapping (i.e., with PTH administration) or subsequent administration of the antiresorptive agent salmon calcitonin (sCT). First, a comparison of the curves obtained with Group H (bmx alone) and Group J (PTH+sCT with no bmx) to that obtained with Group I (bmx PTH+sCT) provide still further evidence of the synergistic effect attributable to the use of the method of the invention. […]

PTH[1-34]-NH2
bone formation / resorption by DEXA BMD curves, in words (left femur with bmx): unexpected increase in degree, speed and longevity of bone formation | BMD (DEXA) (left femur with bmx, Week 0): 0.096 ± .007 gm/cm^2 | BMD (DEXA) (left femur with bmx, Week 1): 0.166 ± .004 gm/cm^2 | BMD (DEXA) (left femur with bmx, Week 2): 0.200 ± .030 gm/cm^2 | BMD (DEXA) (left femur with bmx, Week 3): 0.190 ± .008 gm/cm^2 | BMD (DEXA) (right (non-bmx) femur, Week 0): 0.097 ± .008 gm/cm^2 | BMD (DEXA) (right (non-bmx) femur, Week 1): 0.124 ± .007 gm/cm^2 | BMD (DEXA) (right (non-bmx) femur, Week 2): 0.141 ± .007 gm/cm^2 | BMD (DEXA) (right (non-bmx) femur, Week 3): 0.154 ± .007 gm/cm^2

salmon calcitonin [CT, reference compound]
bone formation / resorption by DEXA BMD curves, in words (left femur with bmx): significantly diminishes the proportion of the newly formed bone which is resorbed
